Patent publication US20020049223A1, “Quinoline and naphthyridine carboxylic acid antibacterials” (priority 1999, published 2002)
Where a name gives a salt, the structure may show the parent alone.

Experiments:
Test in all cases: Assay B: in vitro antibacterial activity, broth microdilution MIC (NCCLS)
Assay type in all cases: cell-based
Escherichia coli JUHL = conditions: Table 2, Assay B, cation-adjusted Mueller Hinton broth, 35° C., 16 to 20 hr; code D = Escherichia coli JUHL; unit assumed
Experimental: (§1) Assay B. Determination of Biological Activity In Vitro Assay of Antibacterial Activity
(§2) Representative compounds of the invention were assayed in vitro for antibacterial activity. The susceptibilities of aerobic, nonfastidious species were determined visually by broth microdilution as described by the National Committee for Clinical Laboratory Standards (NCCLS) (National Committee for Clinical Laboratory Standards. 1997. Methods for dilution antimicrobial susceptibility tests for bacteria that grow aerobically. Approved standard M7-A4. National Committee for Clinical Laboratory Standards. Wayne, Pa.). In brief, serial two-fold dilutions of test compounds were made in cation-adjusted Mueller Hinton broth at two-times the final concentration. Inocula were prepared from overnight cultures of test strains. Tests were inoculated with a suspension of bacteria in Mueller Hinton broth to achieve a final density of approximately 5×10^5 CFU/mL. Tests were incubated at 35° C. in ambient air for 16 to 20 hr. Minimum Inhibitory Concentrations (MICs) were determined as the lowest drug concentration completely inhibiting growth. Ciprofloxacin was included as a control. For testing S. pneumoniae, the cation-adjusted Mueller Hinton broth was supplemented with 3% lysed horse blood and the incubation period was extended to 20 to 24 hr. For testing H. influenzae, the cation-adjusted Mueller Hinton broth was supplemented with 5 g/L yeast extract, […] and 15 mg/L NAD and incubation was extended to 20 to 24 hr..

[1] = tested on: Haemophilus influenzae DILL AMP R; conditions: Table 2, Assay B, Mueller Hinton broth with yeast extract, hematin and NAD, 20 to 24 hr; code E = Haemophilus influenzae DILL AMP R; unit assumed
Experimental: as §1, §2

[2] = tested on: Streptococcus pneumoniae ATCC 6303; conditions: Table 2, Assay B, Mueller Hinton broth with 3% lysed horse blood, 20 to 24 hr; code F = Streptococcus pneumoniae ATCC 6303; unit assumed
Experimental: as §1, §2

[3] = tested on: Enterococcus faecalis PIU 1967; conditions: Table 2, Assay B, cation-adjusted Mueller Hinton broth, 35° C., 16 to 20 hr; code B = Enterococcus faecalis PIU 1967; unit assumed
Experimental: as §1, §2

[4] = tested on: Staphylococcus aureus ATCC 6538P; conditions: Table 2, Assay B, cation-adjusted Mueller Hinton broth, 35° C., 16 to 20 hr; code A = Staphylococcus aureus ATCC 6538P; unit assumed
Experimental: as §1, §2

| SMILES | Antibacterial Activity (MIC's), D (Escherichia coli JUHL) | Antibacterial Activity (MIC's), E [1] | Antibacterial Activity (MIC's), F [2] | Antibacterial Activity (MIC's), B [3] | Antibacterial Activity (MIC's), A [4] |
| --- | --- | --- | --- | --- | --- |
| Cl.NC1CCCc2sc(-c3c(F)cc4c(=O)c(C(=O)O)cn(C5CC5)c4c3F)cc21 (stereo not shown) [Example 308, 7-(4-amino-4,5,6,7-tetrahydro-1-benzothien-2-yl)-1-cyclopropyl-6,8-difluoro-4-oxo-1,4-dihydroquinoline-3-carboxylic acid hydrochloride] | 0.03 µg/mL | 0.015 µg/mL | 0.015 µg/mL | 0.03 µg/mL | 0.008 µg/mL |
| CNC(=S)NN=C1CCCc2sc(-c3ccc4c(=O)c(C(=O)O)cn(C5CC5)c4c3OC)cc21 [Example 85] | 0.5 µg/mL | 0.125 µg/mL | 0.125 µg/mL | 0.25 µg/mL | 0.03 µg/mL |
| COc1c(-c2cc3c(s2)C(N)C(C)(C)CC3)ccc2c(=O)c(C(=O)O)cn(C3CC3)c12.Cl (stereo not shown) [Example 245, 7-(7-amino-6,6-dimethyl-4,5,6,7-tetrahydro-1-benzothien-2-yl)-1-cyclopropyl-8-methoxy-4-oxo-1,4-dihydro-3-quinolinecarboxylic acid hydrochloride] | 0.25 µg/mL | 0.06 µg/mL | 0.125 µg/mL | 0.25 µg/mL | 0.004 µg/mL |
| Cl.NC1CCCc2sc(-c3ccc4c(=O)c(C(=O)O)cn(C5CC5)c4c3OC(F)F)cc21 (stereo not shown) [Example 101, 7-(4-amino-4,5,6,7-tetrahydro-1-benzothien-2-yl)-1-cyclopropyl-8-(difluoromethoxy)-4-oxo-1,4-dihydro-3-quinolinecarboxylic acid hydrochloride] | 0.125 µg/mL | 0.015 µg/mL | 0.03 µg/mL | 0.125 µg/mL | 0.03 µg/mL |
| COc1c(-c2cc3c(s2)CCC(CN)C3)ccc2c(=O)c(C(=O)O)cn(C3CC3)c12.Cl (stereo not shown) [Example 70, 7-(5-(aminomethyl)-4,5,6,7-tetrahydro-1-benzothien-2-yl)-1-cyclopropyl-8-methoxy-4-oxo-1,4-dihydro-3-quinolinecarboxylic acid hydrochloride] | 0.125 µg/mL | 0.015 µg/mL | 0.06 µg/mL | 0.03 µg/mL | 0.03 µg/mL |
| COc1c(-c2cc3c(s2)CCC(F)(F)C3O)ccc2c(=O)c(C(=O)O)cn(C3CC3)c12 (stereo not shown) [Example 204, 1-cyclopropyl-7-(5,5-difluoro-4-hydroxy-4,5,6,7-tetrahydro-1-benzothien-2-yl)-8-methoxy-4-oxo-1,4-dihydro-3-quinolinecarboxylic acid] | 0.125 µg/mL | ≤ 0.004 µg/mL | 0.125 µg/mL | 0.03 µg/mL | ≤ 0.004 µg/mL |
| COc1c(-c2cc3c(s2)CNCC3O)ccc2c(=O)c(C(=O)O)cn(C3CC3)c12 (stereo not shown) [Example 209, 1-cyclopropyl-7-(4-hydroxy-4,5,6,7-tetrahydrothieno[2,3-c]pyridin-2-yl)-8-methoxy-4-oxo-1,4-dihydro-3-quinolinecarboxylic acid] | 0.25 µg/mL | 0.03 µg/mL | 0.25 µg/mL | 0.5 µg/mL | 0.125 µg/mL |
| CNC1CCCc2cc(-c3ccc4c(=O)c(C(=O)O)cn(C5CC5)c4c3OC)sc21.Cl (stereo not shown) [Example 216, 1-cyclopropyl-8-methoxy-7-(7-(methylamino)-4,5,6,7-tetrahydro-1-benzothien-2-yl)-4-oxo-1,4-dihydro-3-quinolinecarboxylic acid hydrochloride] | 0.25 µg/mL | 0.125 µg/mL | 0.125 µg/mL | 0.25 µg/mL | 0.06 µg/mL |
| Cc1c(-c2cc3c(s2)CCCC3N)c(F)cc2c(=O)c(C(=O)O)cn(C3CC3)c12.Cl (stereo not shown) [Example 321, 7-(4-amino-4,5,6,7-tetrahydro-1-benzothien-2-yl)-1-cyclopropyl-6-fluoro-8-methyl-4-oxo-1,4-dihydroquinoline-3-carboxylic acid hydrochloride] | 0.015 µg/mL | ≤ 0.004 µg/mL | ≤ 0.004 µg/mL | 0.015 µg/mL | ≤ 0.004 µg/mL |
| O=C(O)c1cn(C2CC2)c2c(OC(F)F)c(-c3cc4c(s3)CCCC4O)ccc2c1=O (stereo not shown) [Example 99, 1-cyclopropyl-8-(difluoromethoxy)-7-(4-hydroxy-4,5,6,7-tetrahydro-1-benzothien-2-yl)-4-oxo-1,4-dihydro-3-quinolinecarboxylic acid] | 0.25 µg/mL | 0.015 µg/mL | 0.06 µg/mL | 0.125 µg/mL | 0.015 µg/mL |
| COc1c(-c2cc3c(s2)CCCC3NCc2cccc(F)c2)ccc2c(=O)c(C(=O)O)cn(C3CC3)c12 (stereo not shown) [Example 104, 1-cyclopropyl-7-(4-((3-fluorobenzyl)amino)-4,5,6,7-tetrahydro-1-benzothien-2-yl)-8-methoxy-4-oxo-1,4-dihydro-3-quinolinecarboxylic acid hydrochloride] | 2 µg/mL | 0.25 µg/mL | 0.5 µg/mL | 1 µg/mL | 0.25 µg/mL |
| COc1c(-c2nc3c(s2)C(=O)CCC3)ccc2c(=O)c(C(=O)O)cn(C3CC3)c12 [Example 239, 1-cyclopropyl-8-methoxy-4-oxo-7-(7-oxo-4,5,6,7-tetrahydro-1,3-benzothiazol-2-yl)-1,4-dihydro-3-quinolinecarboxylic acid] | 32 µg/mL | 4 µg/mL | > 64 µg/mL | 32 µg/mL | 1 µg/mL |
| COc1c(-c2cc3c(s2)CCCC3=NNC2=NCCN2)ccc2c(=O)c(C(=O)O)cn(C3CC3)c12 [Example 100, 1-cyclopropyl-7-((4E/Z)-4-(4,5-dihydro-1H-imidazol-2-ylhydrazono)-4,5,6,7-tetrahydro-1-benzothien-2-yl)-8-methoxv-4-oxo-1,4-dihydro-3-quinolinecarboxylic acid] | 0.25 µg/mL | 0.125 µg/mL | 0.03 µg/mL | 0.5 µg/mL | 0.06 µg/mL |
| COc1c(-c2cc3c(s2)CCC(C)C3=O)ccc2c(=O)c(C(=O)O)cn(C3CC3)c12 (stereo not shown) [Example 106, 1-cyclopropyl-8-methoxy-7-(5-methyl-4-oxo-4,5,6,7-tetrahydro-1-benzothien-2-yl)-4-oxo-1,4-dihydro-3-quinolinecarboxylic acid] | 0.5 µg/mL | 0.06 µg/mL | 0.125 µg/mL | 0.125 µg/mL | 0.08 µg/mL |
| COc1c(-c2cc3c(s2)CCCC3(C)C)ccc2c(=O)c(C(=O)O)cn(C3CC3)c12 [Example 227, 1-cyclopropyl-7-(4,4-dimethyl-4,5,6,7-tetrahydro-1-benzothien-2-yl)-8-methoxy-4-oxo-1,4-dihydro-3-quinolinecarboxylic acid] | > 64 µg/mL | 2 µg/mL | 8 µg/mL | 2 µg/mL | 0.5 µg/mL |
| COc1c(-c2cc3c(s2)S(=O)(=O)N(C)CC3O)ccc2c(=O)c(C(=O)O)cn(C3CC3)c12 (stereo not shown) [Example 102, 1-cyclopropyl-7-(4-hydroxy-2-methyl-1,1-dioxido-3,4-dihydro-2H-thieno[3,2-e][1,2]thiazin-6-yl)-8-methoxy-4-oxo-1,4-dihydro-3-quinolinecarboxylic acid] | 8 µg/mL | 0.03 µg/mL | 0.5 µg/mL | 1 µg/mL | 0.25 µg/mL |
| COc1c(-c2cc3c(s2)CCCC3N2CC(N)C2)ccc2c(=O)c(C(=O)O)cn(C3CC3)c12.Cl.Cl (stereo not shown) [Example 212, 7-[4-(3-amino-1-azetidinyl)-4,5,6,7-tetrahydro-1-benzothien-2-yl]-1-cyclopropyl-8-methoxy-4-oxo-1,4-dihydro-3-quinolinecarboxylic acid dihydrochloride] | 0.5 µg/mL | 0.25 µg/mL | 0.125 µg/mL | 0.5 µg/mL | 0.125 µg/mL |
